Measurements from US10889575B2, “4,4-diphenylpiperidine compounds or pharmaceutically acceptable salts thereof, pharmaceutical compositions and uses thereof” (Academy of Military Medical Sciences, priority 2017, dated 2021).
Values joined by “and” are separate entries in the source; they are usually repeats but may differ in a detail not shown here. Equal entries are not always repeated. Structures can show the parent of a compound that is named as a salt. Where two headings read alike, the source gives them in different places.

Experiments:
[1] = test system: acetic acid writhing in mice; test: mouse acetic acid writhing model (analgesic effect); assay type: in vivo, Kunming mice; details: intragastric 30 mg/kg; for Writhing inhibition rate (%): 40 min before i.p. 0.6% acetic acid, writhings counted over 15 min
Source text: 1. Experimental purposes: To determine the analgesic activity of Compound (4) hydrochloride and Compounds (1), (2), (3), (5) in a mouse acetic acid writhing model.
2. Experimental materials: Kunming mice (18-22 g), half male and half female, were provided by the Experimental Animal Center of the Academy of Military Medical Sciences.
The mice were weighed and labeled, 10 mice in each group (half male and half female), the mice were divided into 7 groups, including 5 experimental groups (using Compound (4) hydrochloride, Compound (1), (2), (3), (5), respectively), positive control group (using NMED-160) and negative control group (using normal saline). Among them, NMED-160 used in the positive control group was a selective small molecule N-type calcium ion channel blocker, which had entered the phase II clinical trial and could be synthesized by referring to document^[11], and the structural formula thereof is as follows: […]
The mice were intragastrically administered with drug (30 mg/kg). After 40 minutes, 0.4 mL of 0.6% (v/v) acetic acid was intraperitoneally injected. After 5 minutes, the number of mouse writhings in the subsequent 15 minutes was recorded. The inhibition rate of the drug on the acetic acid writhing in mice was calculated according to the following formula, and the analgesic effect of the drug was evaluated.
A represents the number of writhings in the negative control group;
B represents the number of writhings in the experimental groups or the positive control group.

[2] = test system: N-type calcium ion channel (α1B/β1b/α2δ); test: N-type calcium ion channel current suppression, two-electrode voltage clamp in Xenopus oocytes; assay type: cell-based; details: 10 μM
Procedure: To determine the current suppressing effects of Compound (4) hydrochloride and Compounds (1), (2), (3), (5) of the present invention on N-type calcium ion channel (α1B/β1b/α2δ) transiently expressed in Xenopus oocytes.
Plasmids α1B, α2δ, β1b were injected into Xenopus oocytes in concentration ratio of 1:1:1, and the total volume of the three plasmids injected into per cell was about 46 nL. The injected cells were placed in ND-96 medium at 18° C. for 48 hours, then the expressed current was recorded.
Perfusion administration method was adopted with a flow rate of 3 mL/min and a test drug concentration of 10 μM. Using two-electrode voltage clamp technique, the cell was clamped at −100 mV, stepped at 10 mV, depolarized to +60 mV, and the current was recorded.
Current inhibition rate (%)=100×(current amplitude after administration−current amplitude before administration)/current amplitude before administration

[3] = Evaluation of the central nervous system distribution in rats; details: for Kp at 2 h: SD, rat
[4] = Rapid evaluation of pharmacokinetics in rats; assay type: in vivo, SD rats
Procedure: Compound (1) was dissolved in 25% (w/v) aqueous solution of hydroxypropyl-β-cyclodextrin;
Adult SD rats, 180-220 g in body weight, male, purchased from the Animal Center of the Academy of Military Medical Sciences, Animal Certificate SCXK-(Army)-2012-0004;
Six adult SD rats were randomly numbered, and divided into 2 groups to receive intravenous injection (i.v., 1.85 mg/kg) and oral administration (p.o., 11 mg/kg) of Compound (1), respectively; blood samples were collected at 0.1 mL before administration and 2 minutes, 5 minutes, 15 minutes, 30 minutes, 60 minutes, 2 hours, 4 hours, 7 hours and 24 hours after administration, placed in anticoagulation tubes, centrifuged for 15 minutes (3500 rpm) to separate plasma, and 0.05 mL plasma samples were accurately taken and frozen in a refrigerator at −30° C. for later tests.
To the 0.05 mL rat plasma sample, 0.3 mL of acetonitrile containing the internal standard substance megestrol (100 ng/mL) and 0.005 mL of blank acetonitrile were added, vortexed for 1 minute on a vortex mixer, and centrifuged for 10 minutes (14,000 g), about 0.15 mL of the supernatant was taken and placed into an injection vial, injected 5 μL to LC-MS/MS for detection and analysis by referring to the method of the above section 2. […] The results of 1 # to 3 # were averaged, the results of 4 # to 6 # were averaged, and the relationship curves of the average concentrations of Compound (1) in the rats of i.v. administration and in the rats of p.o. administration against time were obtained and shown in FIG. 2. The Winnolin pharmacokinetic software was used to analyze the measured data and calculate the main pharmacokinetic parameters, including the area under curve (AUC), clearance rate (CL), apparent distribution volume (V), terminal elimination half life (t1/2) and mean residence time (MRT) for the intravenous injection, as well as the area under curve (AUC), terminal elimination half life (t1/2), mean residence time (MRT), peak concentration (Cmax), time to peak (Tmax) and biological force (F) for the oral administration.

[5] = in vivo; details: SD, rat, iv
[6] = male, SD, rat, plasma, intravenous injection 1.85 mg/kg, n = 3
[7] = male, SD, rat, plasma, oral administration 11 mg/kg, n = 3

## c1ccc(C2(c3ccccc3)CCN(Cc3cccs3)CC2)cc1 [Compound (5), 1-(2-methylthienyl)-4,4-diphenylpiperidine]
[1]
  Writhing inhibition rate (%): 46.87%
[2]
  Current inhibition rate (%): 45.3%

## O=C(CN1CCC(c2ccccc2)(c2ccccc2)CC1)c1ccc2[nH]c(=O)oc2c1 [Compound (2), 6-(3-(4,4-diphenylpiperidinyl)-acetyl)benzoxazolin-2-one]
[1]
  Writhing inhibition rate (%): 54.66%
[2]
  Current inhibition rate (%): 65.6%

## CN(C)c1ccc(CN2CCC(c3ccccc3)(c3ccccc3)CC2)cc1 [Compound (3), 1-(4-dimethylaminobenzyl)-4,4-diphenylpiperidine]
other
  melting point: 128 to 130 °C
[1]
  Writhing inhibition rate (%): 23.17%
[2]
  Current inhibition rate (%): 42.3%

## COc1cc(CN2CCC(c3ccccc3)(c3ccccc3)CC2)cc(OC)c1OC.Cl [Compound (4) hydrochloride, 1-(3,4,5-trimethoxybenzyl)-4,4-diphenylpiperidine hydrochloride]
[1]
  Writhing inhibition rate (%): 39.68%
[2]
  Current inhibition rate (%): 54.1%

## O=C(CCN1CCC(c2ccccc2)(c2ccccc2)CC1)c1ccc2[nH]c(=O)oc2c1 [Compound (1), 6-(3-(4,4-diphenylpiperidinyl)-propionyl)benzoxazolin-2-one]
other
  melting point: 236 °C (dec.)
[3]; brain/plasma, intravenous
  Kp at 2 h: 3 ± 0.71
[3]; in vivo
  Kp at 2 h: 3 to 4
[3]; spinal cord/plasma, intravenous
  Kp at 2 h: 3.7 ± 1.3
[3]; rats, i.v. bolus then instillation, 2 hours after administration, n = 3
  Concentration, Rat brain tissue: 808.3 ± 233.8 ng/g
[1]
  Writhing inhibition rate (%): 58.77%
[1]; acetic acid writhing
  analgesic effect (in words): comparable to that of NMED-160
[4]; i.v. clearance compared with rat liver blood flow (3.3 L/h/kg)
  effect of liver metabolism on the clearance in vivo: about 70%
[4]; intravenous injection 1.85 mg/kg, n = 3, 1.85 mg/kg
  V: 12.39 L/kg and 12.39 ± 3.17 L/kg
[4]; [6]
  AUC: 750 ± 98.2 ng·h/mL
  MRT: 3.87 ± 0.18 h
  clearance: 39.7 mL/min/kg
  half-life: 5 ± 0.88 h
[4]; [7]
  AUC: 1670 ± 222 ng·h/mL
  Cmax: 188 ± 28.5 ng/mL
  MRT: 5.6 ± 0.46 h
  half-life: 5.4 ± 1.5 h
[4]; male, SD, rat, plasma, po, 11 mg/kg, oral administration 11 mg/kg, n = 3, read-out: Tmax
  Tmax: 1 to 2 h
[4]; oral 11 mg/kg vs intravenous 1.85 mg/kg, n = 3
  F: 44.7% and 44.7 ± 5.93%
[4]; oral administration 11 mg/kg, n = 3, 11 mg/kg
  Tmax: 1.33 ± 0.58 h
[5]
  concentration at 2 h: 271 ng/mL and 998 ng/g
[2]
  Current inhibition rate (%): 70.6%

## O=C(CC(c1ccccc1)c1ccccc1)N1CCN(C(c2ccccc2)c2ccccc2)CC1 [NMED-160, reference compound]
[1]
  Writhing inhibition rate (%): 51.75%

## COc1cc(CN2CCC(c3ccccc3)(c3ccccc3)CC2)cc(OC)c1OC (as salt: hydrochloride)
other
  melting point: 235 to 237 °C
